In ChEMBL document CHEMBL5543078, “Peptidomimetics as potent dual SARS-CoV-2 cathepsin-L and main protease inhibitors: In silico design, synthesis and pharmacological characterization” (Eur J Med Chem, 2024) one finds EC50 data, which are given here for 19 compounds.

Non-standard residues stand in square brackets, D forms with d. Residues, ends and D or L forms follow the SMILES beside them. *: point of attachment. AllylGly = C=CC[C@H](N)C(=O)O; Acryloyl = C=CC(=O)*; NHBn = c1ccc(CN*)cc1; ClAc = O=C(CCl)*

For orientation: EC50 means the concentration that produces a half-maximal response. Low values mean a more potent agent, high ones a less potent agent.

This assay relates to SARS-CoV-2. Nature of the assay: microbe, parasite or virus in culture. The settings on record: Severe acute respiratory syndrome coronavirus 2, RG-2674 (Beta), Vero.
Turning to `C=CC[C@H](NC(=O)CCl)C(=O)N[C@@H](CC=C)C(=O)N[C@H](CNCc1ccccc1)Cc1c[nH]c2ccccc12`, the midpoint of the response, the EC50, lay at 2160 nM.

Turning to `CC(C)C[C@@H](NC(=O)CCl)C(=O)N[C@@H](Cc1c[nH]c2ccccc12)C(=O)NCc1ccccc1`, the EC50 came out at 70 nM.

In the case of `O=C(CS)N[C@@H](Cc1ccccc1)C(=O)N[C@@H](Cc1c[nH]c2ccccc12)C(=O)NCc1ccccc1`, the EC50 is greater than 100000 nM.

`C=CC[C@H](NC(=O)CCl)C(=O)N[C@@H](Cc1c[nH]c2ccccc12)C(=O)NCCN1CCOCC1` returned an EC50 of 5900 nM.

As for `CC(C)C[C@H](NC(=O)CCl)C(=O)N[C@H](Cc1c[nH]c2ccccc12)C(=O)NCc1ccccc1`, the EC50 is 8930 nM.

For the compound `CC(C)C[C@@H](C(=O)NCC12CC3CC(CC(C3)C1)C2)N(Cc1ccccc1)C(=O)CCl`, the concentration for a half-maximal effect (EC50) was greater than 4000 nM.

As to `CC(C)C[C@H](NC(=O)CCl)C(=O)N[C@@H](Cc1c[nH]c2ccccc12)C(=O)NCc1ccccc1`, the EC50 came out at 440 nM.

On to `C=CC(=O)N[C@@H](CC(C)C)C(=O)N[C@@H](Cc1c[nH]c2ccccc12)C(=O)NCc1ccccc1`, for which the EC50 was greater than 100000 nM.

Turning to `C=CC(=O)N[C@@H](Cc1ccccc1)C(=O)N[C@@H](Cc1c[nH]c2ccccc12)C(=O)NCc1ccccc1` (Acryloyl-Phe-Trp-NHBn), the EC50 was greater than 20000 nM.

`O=C(CCl)NCC(=O)N[C@@H](Cc1c[nH]c2ccccc12)C(=O)NCc1ccccc1` (ClAc-Gly-Trp-NHBn): the response was half-maximal at 70 nM (EC50).

Take `CC(C)C[C@H](NC(=O)CCl)C(=O)N[C@@H](Cc1ccccc1)C(=O)N[C@@H](Cc1c[nH]c2ccccc12)C(=O)NCc1ccccc1` (ClAc-Leu-Phe-Trp-NHBn): the EC50 is greater than 20000 nM.

With `COC(=O)[C@H](CCC(N)=O)NC(=O)[C@H](Cc1c[nH]c2ccccc12)NC(=O)[C@H](CC(C)C)NC(=O)CCl` (ClAc-Leu-Trp-Gln-OMe), the EC50 is greater than 100000 nM.

In turn, `O=C(CCl)N[C@@H](Cc1ccccc1)C(=O)N[C@@H](Cc1c[nH]c2ccccc12)C(=O)NCc1ccccc1` (ClAc-Phe-Trp-NHBn) had an EC50 of 70 nM.

As for `CC(C)C[C@H](NC(=O)[C@H](Cc1c[nH]c2ccccc12)NC(=O)CCl)C(=O)NCc1ccccc1` (ClAc-Trp-Leu-NHBn), the midpoint of the response, the EC50, lay at 260 nM.

As to `COC(=O)[C@H](CC(C)C)NC(=O)[C@H](Cc1c[nH]c2ccccc12)NC(=O)CCl` (ClAc-Trp-Leu-OMe), the EC50 was greater than 4000 nM.

In the case of `O=C(CCl)N[C@@H](Cc1ccc(O)cc1)C(=O)N[C@@H](Cc1c[nH]c2ccccc12)C(=O)NCc1ccccc1` (ClAc-Tyr-Trp-NHBn), the EC50 came to 3320 nM.

Consider `C=CC[C@H](NC(=O)CCl)C(=O)N[C@@H](Cc1c[nH]c2ccccc12)C(=O)NCc1ccccc1` (ClAc-[AllylGly]-Trp-NHBn), for which the EC50 was determined as 460 nM.

`CC(C)C(=O)OC[C@H]1O[C@@H](n2ccc(NO)nc2=O)[C@H](O)[C@@H]1O` [MOLNUPIRAVIR] gave an EC50 of 2810 nM.

`CCC(CC)COC(=O)[C@H](C)N[P@](=O)(OC[C@H]1O[C@@](C#N)(c2ccc3c(N)ncnn23)[C@H](O)[C@@H]1O)Oc1ccccc1` [REMDESIVIR] yielded an EC50 of 2400 nM.
